Experimental data reported in US7595333B2, “Agent for improving acidosis” (priority 1999, dated 2009).
Counter-ions that a name gives are not always drawn.

Legend:
Wistar fatty rats [1] = test: Effect on ketosis caused by a biguanide (metformin) in Wistar fatty rats (total ketone bodies in plasma); type: in vivo, rat; conditions: for concentration of total ketone bodies, higher as compared with Group A (without metformin and pioglitazone hydrochloride) / concentration of total ketone bodies in plasma: metformin 300 mg/kg/day; for concentration of total ketone bodies, higher as compared with Group A (without metformin and pioglitazone hydrochloride): difference of means; for concentration of total ketone bodies in plasma: Wistar fatty rats, pioglitazone hydrochloride 1 mg/kg/day, mean ± SD, n=6
From the text: 3-Hydroxybutyric acid (3-HB) in samples is specifically oxidized by 3-hydroxybutyric acid dehydrogenase (3-HBDH) in the presence of an oxidized form of β-thionicotinamide adenine dinucleotide (thio-NAD) to produce acetoacetic acid (AcAc) and a reduced form of β-thionicotinamide adenine dinucleotide (thio-NADH). […] The concentration of total ketone bodies which is the sum of 3-HB and AcAc in samples can be calculated by determining a production speed of thio-NADH thus obtained.
Effects of an insulin sensitizer (pioglitazone hydrochloride) on ketosis caused by a biguanide (metformin) in Wistar fatty rats, NIDDM models, were studied.
First, Wistar fatty rats (31 week-old, male) were divided into three groups, namely Groups A, B and C, each consisting of 6 rats. […] After administration, blood was collected from the tail vein of the Wistar fatty rats, and total ketone bodies in the plasma were determined in the same manner as in Experimental Example 1.
In the table, W. fatty. Met and Pio mean Wistar fatty rat, metformin and pioglitazone hydrochloride, respectively. Figures in the table represent means ± standard deviation (number of subjects=6).
The concentration of total ketone bodies in plasma of Wistar fatty rats was determined in the same manner as in Experimental Example 2 except that the administration period was changed from 14 days to 7 days.

Wistar fatty rats [2] = test: Effect on diabetic ketosis in Wistar fatty rats (total ketone bodies in plasma); type: in vivo, rat; conditions: for concentration of total ketone bodies in plasma: Wistar fatty rats (31 week-old, male), pioglitazone hydrochloride 1 mg/kg body weight/day orally for 14 days, mean ± SD, n=6, control without Pio 170.23 ± 22.33 μM
From the text: For instance, diabetic ketosis is observed in a Wistar fatty rat which is an animal model of non-insulin dependent (type 2) diabetes mellitus. Therefore, a ketosis improving action of a test compound can be evaluated by comparing concentration of total ketone bodies in plasma between Wistar fatty rat groups with administration of a test compound (Experimental group) and Wistar fatty rat groups without administration of a test compound (Control group). […] 3-Hydroxybutyric acid (3-HB) in samples is specifically oxidized by 3-hydroxybutyric acid dehydrogenase (3-HBDH) in the presence of an oxidized form of β-thionicotinamide adenine dinucleotide (thio-NAD) to produce acetoacetic acid (AcAc) and a reduced form of β-thionicotinamide adenine dinucleotide (thio-NADH). […] Effects of an insulin sensitizer (pioglitazone hydrochloride) on diabetic ketosis in Wistar fatty rats, animal models of non-insulin dependent diabetes mellitus (NIDDM), were studied. First, Wistar fatty rats (31 week-old, male) were divided into two groups each consisting of 6 rats. […] After administration, blood was collected from the tail vein of the Wistar fatty rats, and total ketone bodies in the plasma were enzymatically determined by using AutoWako total ketone bodies (Trade name)(Wako Pure Chemical Industries, Ltd., Japan) and Hitachi 7070 Autoanalyzing machine. Wistar lean rats (6 rats), animal models of non diabetes mellitus (normal), were orally administered with a 0.5 (w/v) % aqueous methylcellulose solution for 14 days. Then, total ketone bodies in the plasma were determined in the same manner as above. In the table, W, lean, W. fatty and Pio mean Wistar lean rat, Wistar fatty rat and pioglitazone hydrochloride, respectively. Figures in the table represent means ± standard deviation (number of subjects=6).

Structure (SMILES)	concentration of total ketone bodies, higher as compared with Group A (without metformin and pioglitazone hydrochloride) (Wistar fatty rats [1]; 7 days) [µM]	concentration of total ketone bodies, higher as compared with Group A (without metformin and pioglitazone hydrochloride) (Wistar fatty rats [1]; 14 days) [µM]	concentration of total ketone bodies in plasma (Wistar fatty rats [1]; 7 days orally, Group A control 160.37 ± 14.00 μM) [µM]	concentration of total ketone bodies in plasma (Wistar fatty rats [1]; 7 days orally, Group A control 160.37 ± 14.00 μM, listed as Met) [µM]	concentration of total ketone bodies in plasma (Wistar fatty rats [1]; 14 days orally, Group A control 170.23 ± 22.33 μM) [µM]	concentration of total ketone bodies in plasma (Wistar fatty rats [1]; 14 days orally, Group A control 170.23 ± 22.33 μM, listed as Met) [µM]	effect on ketosis caused by a biguanide (conclusion in words) (Wistar fatty rats [1]; Experimental Examples 2 and 3 (14 and 7 days))	concentration of total ketone bodies in plasma (Wistar fatty rats [2]) [µM]	concentration of total ketone bodies in plasma (Wistar fatty rats [2]; listed as Pio) [µM]	effect on diabetic ketosis (conclusion in words) (Wistar fatty rats [2]; Wistar fatty rats, 1 mg/kg/day orally, 14 days)	concentration of total ketone bodies, lower as compared with the group without pioglitazone hydrochloride (Wistar fatty rats [2]; Wistar fatty rats, 1 mg/kg/day orally, 14 days, difference of means) [µM]
CN(C)C(=N)N=C(N)N [metformin]	38.86	11.77	199.23 ± 55.69	199.23 ± 55.69	182.00 ± 22.50	182.00 ± 22.50	–	–	–	–	–
CCc1ccc(CCOc2ccc(CC3SC(=O)NC3=O)cc2)nc1 (centres unmarked) [pioglitazone hydrochloride, 5-[4-[2-(5-ethyl-2-pyridyl)ethoxy]benzyl]-2,4-thiazolidinedione]	–	–	–	–	–	–	improves ketosis caused by a biguanide (metformin)	125.72 ± 12.49	125.72 ± 12.49	improves diabetic ketosis	44.51
